From patent publication US5192756A, “Aminosterol antibiotic” (The Children's Hospital of Pennsylvania, priority 1992, dated 1993)
Converted amounts (≈) assume the structure as drawn. No end group written: not given here.

Legend:
[1] = system: Strep. faecalis; assay: Minimal inhibitory concentration, Strep. faecalis; type: cell-based; details: Strep. faecalis ATCC 29212, 1/2×TSB, 37° C., 18 to 24 hours; for MIC: Enterococcus faecalis, ATCC29212
Protocol: (§1) Squalamine was assayed in vitro against several microbial organisms to evaluate its spectrum of activity.
(§2) Minimal inhibitory concentrations for the bacteria and yeast were determined by incubating 0.9-11×10^5 colony-forming units/ml of log-phase organisms in 1/2×tryptica soy broth (TSB) with increasing concentrations of sample in static 96-2311 microtiter plates (Corning, Inc., Corning, N.Y.) at 37° C. for 18 to 24 hours. The minimal inhibitory concentration is the concentration of sample at which no growth was observed. Control incubation in the absence of […] served to set a baseline value.
(§3) Initial sample concentrations were 2 mg/ml in 250 mM sodium acetate pH 6.6, 11.2 mM HCl, except taurolithocholic acid 3-sulfate which was 2 mg/ml in 50 mM sodium acetate, and squalamine to which HCl was not added because it was acidic following the last step of purification. Spermidine HCl, taurolithocholic acid 3-sulfate, melittin, holothurin and ampicillin were purchased from Sigma (St. Louis, Miss.). CHAPS (3-[(3-cholamidopropyl)dimethylammonio]-1-propane sulfonate dihydrate) was purchased from Aldrich (Milwaukee, Wis.). Conessine was purchased from Aldrich Rare Chemicals Division (Milwaukee, Wis.). Magainin-II amide and CPF-amide were made by Magainin Pharmaceuticals, Inc. (Plymouth Meeting, Penn.). The CPF peptide used in the assay has the sequence […]-NH2. (Richter, K., et al., J. Biol. Chem. 261, 3676-3680 (1986).

[2] = system: Proteus vulgaris; assay: Minimal inhibitory concentration, Proteus vulgaris; type: cell-based; details: Proteus vulgaris ATCC 13315, 1/2×TSB, 37° C., 18 to 24 hours; for MIC: ATCC13315
Protocol: as §1, §2, §3

[3] = system: E. coli; assay: Minimal inhibitory concentration, E. coli; type: cell-based; details: E. coli ATCC 25922, 1/2×TSB, 37° C., 18 to 24 hours; for MIC: Escherichia coli, ATCC25922
Protocol: as §1, §2, §3

[4] = system: Candida albicans; assay: Minimal inhibitory concentration, Candida albicans; type: cell-based; details: for MIC: ATCC14053; for MIC / Minimal Inhibitory Concentration: Candida albicans ATCC 14053, 1/2×TSB, 37° C., 18 to 24 hours
Protocol: as §1, §2, §3

[5] = system: Serratia marcescens; assay: Minimal inhibitory concentration, Serratia marcescens; type: cell-based; details: Serratia marcescens ATCC 8100, 1/2×TSB, 37° C., 18 to 24 hours; for MIC: ATCC8100
Protocol: as §1, §2, §3

[6] = system: Staph. aureus; assay: Minimal inhibitory concentration, Staph. aureus; type: cell-based; details: Staph. aureus ATCC 29213, 1/2×TSB, 37° C., 18 to 24 hours; for MIC: Staphylococcus aureus, ATCC29213
Protocol: as §1, §2, §3

[7] = Hemolytic activity against human erythrocytes; type: cell-based; details: human; 92 μg/ml; 10% erythrocytes in PBS, 37° C., ten minutes; Triton X-100 = 100%
Protocol: (§4) Because of its structural resemblance to steroidal detergents, squalamine was assayed for its hemolytic activity against human erythrocytes.
(§5) Each sample was diluted in H2 O and was added to a 10% (vol/vol) suspension of human erythrocytes in phosphate buffered saline (PBS). Erythrocytes were collected with heparin and washed once in 1×PBS before the assay. Samples were incubated at 37° C. for ten minutes, centrifuged at 12,000× g for one minute, and the OD350 of the supernatant was measured. Addition of Triton X-100 (final concentration 0.1%) defined 100% hemolysis.

[8] = system: Paramecium caudatum; assay: Minimal disruptive concentration, Paramecium caudatum; type: cell-based; details: for MIC / Minimal Inhibitory Concentration (minimal disruptive concentration for the protozoa): 1% trypticase soy broth, light microscopy for ten minutes; for MIC: read-out: Minimal Inhibitory Concentration (minimal disruptive concentration for the protozoa)
Protocol: as §1, §3
(§6) Minimal disruptive concentration (the concentration at which physical disruption of the protozoa occurred) was determined for the protozoa by adding […] of sample (in sodium acetate as above) to […] of 1% trypticase soy broth containing P. caudatum (Nasco, Fort Atkinson, Wiss,). Organisms were observed by light microscopy for ten minutes.

[9] = system: several microbial organisms; assay: In vitro antimicrobial spectrum (bacteria, fungi, protozoa), in words; type: cell-based; details: for antibiotic activity (in words): bacteria, fungi, protozoa, concentration range studied
Protocol: as §1, §2, §3, §6

[10] = system: Pseudomonas aeruginosa; assay: Minimal inhibitory concentration, Pseudomonas aeruginosa; type: cell-based; details: Pseudomonas aeruginosa ATCC 27853, 1/2×TSB, 37° C., 18 to 24 hours; for MIC: ATCC27853
Protocol: as §1, §2, §3

[11] = system: human erythrocytes; assay: Hemolytic activity against human erythrocytes; type: cell-based
Protocol: as §4, §5

[12] = system: E. coli D31; assay: Protease resistance of antimicrobial activity (proteinase K); type: in vitro ADME; details: proteinase K 2 mg/ml, one hour, 37° C.; E. coli D31 lawn
Protocol: Proteinase K (final concentration 2 mg/ml) was added to 0.2 μg/μl squalamine or 0.8 μg/μl magainin II amide in 1×phosphate-buffered saline. After a one hour incubation at 37° C., 2 μl of each sample was applied to the lawn of E. coli D31.

Row | Compound | MIC [1] [µg/mL] | MIC [2] [µg/mL] | MIC [3] [µg/mL] | MIC [4] [µg/mL] | MIC [5] [µg/mL] | MIC [6] [µg/mL] | hemolysis at 10 min [7] [%] | MIC [8] [µg/mL] | MIC [10] [µg/mL] | Minimal Inhibitory Concentration [1] [µg/mL] | Minimal Inhibitory Concentration [2] [µg/mL] | Minimal Inhibitory Concentration [3] [µg/mL] | Minimal Inhibitory Concentration [4] [µg/mL] | Minimal Inhibitory Concentration [5] [µg/mL] | Minimal Inhibitory Concentration [6] [µg/mL] | Minimal Inhibitory Concentration (minimal disruptive concentration for the protozoa) [8] [µg/mL] | Minimal Inhibitory Concentration [10] [µg/mL] | antibiotic activity (in words) [9] | other results
1 | C[C@H]1[C@H]2CC[C@H]3[C@@H]4CC=C5C[C@@H](N(C)C)CC[C@]5(C)[C@H]4CC[C@]23CN1C [Conessine] | > 500 | > 500 | > 500 | 31 to 62 (≈ 86.9 to 174 µM) | > 500 | > 500 | < 0.5 | 16 to 33 (≈ 44.9 to 92.5 µM) | > 500 |  |  |  |  |  |  |  |  |  | antifungal activity (in words) ([4]; Candida): exhibits antifungal (Candida) and antiprotozoan (Paramecium caudatum) activity; antiprotozoan activity (in words) [8]: exhibits antifungal (Candida) and antiprotozoan (Paramecium caudatum) activity; antibacterial activity (in words) ([9]; bacteria of Table I): lacks antibacterial activity
2 | GFGSFLGKALKAALKIGANALGGSPQQ-NH2 [CPF, caerulein percursor fragment, Xenopus antimicrobial peptide] |  |  |  |  |  |  |  |  |  | 31 to 62 | 62 to 125 | 8 to 16 | 62 to 125 | > 125 | 8 to 16 | 4 to 8 | 8 to 31 |  | hemolysis ([11]; 92 μg/ml, 10% erythrocytes in PBS, 37° C., ten minutes, Triton X-100 = 100%, 10 min): 3%
3 | NCCCCNCCCN [Spermidine] | 250 to 500 (≈ 1720 to 3440 µM) | > 500 | > 500 | > 500 | > 500 | > 500 | < 0.5 | > 260 | > 500 |  |  |  |  |  |  |  |  | inactive as an antibiotic | 
4 | Magainin II |  |  |  |  |  |  |  |  |  | > 250 | 125 to 250 | 31 to 62 | 125 to 250 | > 250 | > 250 | 33 to 65 | 31 to 62 |  | antimicrobial activity after proteinase K digestion [12]: lost all activity on proteinase K digestion
5 | C[C@H](CCC(=O)NCCC[N+](C)(C)CCCS(=O)(=O)[O-])[C@H]1CC[C@H]2[C@@H]3[C@H](O)C[C@@H]4C[C@H](O)CC[C@]4(C)[C@H]3C[C@H](O)[C@]12C [CHAPS, 3-[(3-cholamidopropyl)dimethylammonio]-1-propane sulfonate dihydrate] | 250 to 500 | > 500 | > 500 | > 500 | > 500 | > 500 | < 0.5 | > 260 | > 500 |  |  |  |  |  |  |  |  | inactive as an antibiotic | 
6 | C[C@H](CCC(=O)NCCS(=O)(=O)O)[C@H]1CC[C@H]2[C@@H]3CC[C@@H]4C[C@H](OS(=O)(=O)O)CC[C@]4(C)[C@H]3CC[C@]12C [Taurolithocholic Acid 3-sulfate, taurolithocholic acid 3-sulfate] | > 500 | > 500 | > 500 | > 500 | > 500 | > 500 |  | > 260 | > 500 |  |  |  |  |  |  |  |  | inactive as an antibiotic | 
7 | CC[C@H](C)[C@H](NC(=O)CN)C(=O)NCC(=O)N[C@@H](C)C(=O)N[C@H](C(=O)N[C@@H](CC(C)C)C(=O)N[C@@H](CCCCN)C(=O)N[C@H](C(=O)N[C@@H](CC(C)C)C(=O)N[C@H](C(=O)N[C@H](C(=O)NCC(=O)N[C@@H](CC(C)C)C(=O)N1CCC[C@H]1C(=O)N[C@@H](C)C(=O)N[C@@H](CC(C)C)C(=O)N[C@H](C(=O)N[C@@H](CO)C(=O)N[C@@H](Cc1c[nH]c2ccccc12)C(=O)N[C@H](C(=O)N[C@@H](CCCCN)C(=O)N[C@@H](CCCNC(=N)N)C(=O)N[C@@H](CCCCN)C(=O)N[C@@H](CCCNC(=N)N)C(=O)N[C@@H](CCC(N)=O)C(=O)N[C@@H](CCC(N)=O)C(N)=O)[C@@H](C)CC)[C@@H](C)CC)[C@@H](C)O)[C@@H](C)O)C(C)C)C(C)C [Melittin] |  |  |  |  |  |  |  |  |  | 4 to 16 | 16 to 31 | 8 to 16 | 16 to 31 | > 250 | 8 to 16 | 2 to 4 | 16 to 31 |  | antibiotic versus hemolytic concentration / selectivity (in words) ([11]; antibiotic activity compared with erythrocyte disruption): fall within a similar concentration range
8 | CC1(C)S[C@@H]2[C@H](NC(=O)[C@H](N)c3ccccc3)C(=O)N2[C@H]1C(=O)O [Ampicillin, ampicillin] | < 0.25 | 8 to 16 (≈ 22.9 to 45.8 µM) | 2 to 4 (≈ 5.72 to 11.4 µM) | > 125 | 4 to 62 (≈ 11.4 to 177 µM) | 1 (≈ 2.86 µM) | < 0.5 | > 65 | 62 to 125 (≈ 177 to 358 µM) |  |  |  |  |  |  |  |  |  | 
